Molecular target: Human recombinant 11beta-hydroxysteroid dehydrogenase type 1 (11beta-HSD1) (Homo sapiens, UniProt P28845)
Experiment: 11beta-HSD1 enzyme assay (HTRF cortisol)
Description: Mice liver microsome fractions were purchased from TEBU.
The 11beta-HSD1 enzyme assay was carried out in 96 well microtiter plates in a total volume of 100 μl containing 30 mM Hepes buffer, pH 7.4 with 1 mM EDTA, substrate mixture cortisone/NADPH (200 nM/200 μM), G-6-P (1 mM) and inhibitors in serial dilutions. […] Following mixing, the plates were shaken for 150 minutes at 37° C. The reactions were terminated with 10 μl Acid-18beta glycyrrhetinic stop solution. Determinations of cortisol levels in 11 beta-HSD1 preparations were monitored by HTRF (HTRF cortisol assay from Cis bio international).

Chain of Human recombinant 11beta-hydroxysteroid dehydrogenase type 1 (11beta-HSD1) (P28845 whole entry): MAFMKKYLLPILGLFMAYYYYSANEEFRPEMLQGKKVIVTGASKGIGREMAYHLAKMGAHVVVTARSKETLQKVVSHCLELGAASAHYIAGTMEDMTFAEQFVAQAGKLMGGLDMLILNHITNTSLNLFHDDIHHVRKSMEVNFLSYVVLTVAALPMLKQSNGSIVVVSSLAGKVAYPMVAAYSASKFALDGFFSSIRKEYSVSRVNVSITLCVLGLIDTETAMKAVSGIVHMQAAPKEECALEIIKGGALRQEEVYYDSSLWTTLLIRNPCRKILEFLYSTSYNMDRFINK

Work on `COc1cc(Cl)ccc1OCC(C)(C)CC(=O)NC1C2CC3CC(C2)CC1C3` (stereo not shown) yielded an IC50 of 45 nM.

Reference: US8183265B2, “2-adamantyl-butyramide derivatives as selective 11β-HSD1 inhibitors” (Merck Patent GmbH, priority 2006, dated 2012)
